Experimental data from paper PMC5552880, “The Bitter Taste Receptor TAS2R16 Achieves High Specificity and Accommodates Diverse Glycoside Ligands by using a Two-faced Binding Pocket” (Scientific Reports, 2017).

How the values were obtained:
Assay type in all cases: cell-based
S97R TAS2R16 = target: T1, S97R TAS2R16 (Homo sapiens, UniProt Q9NYV7, S97R); experiment: Ca2+ flux assay, mutation library clone S97R; conditions: 3 mM salicin, mean (range, max-min), n=3
T1 construct: Each construct in the mutation library was tested for full-length TAS2R16 translation; V5; expressed in transfected cells; host or cells: HEK-293T
T1 sequence (Q9NYV7 whole entry S97R): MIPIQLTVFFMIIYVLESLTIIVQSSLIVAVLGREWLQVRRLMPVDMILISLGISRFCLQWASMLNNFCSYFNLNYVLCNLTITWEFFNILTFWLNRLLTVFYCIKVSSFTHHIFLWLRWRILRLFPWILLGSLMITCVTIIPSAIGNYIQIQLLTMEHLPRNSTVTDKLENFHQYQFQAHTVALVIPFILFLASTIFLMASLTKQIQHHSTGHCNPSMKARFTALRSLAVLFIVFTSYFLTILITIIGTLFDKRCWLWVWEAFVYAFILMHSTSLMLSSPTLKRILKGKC
Description: (§1) The TAS2R16 mutation library was tested for function using a Ca^2+ flux assay as described previously. Later screens of individual TAS2R16 mutant clones used 4-nitrophenyl-β-D-glucopyranoside. Briefly, HEK-293T cells, in poly-lysine coated, black 384-well plates with clear bottoms (Costar), were transfected with the TAS2R16 mutation library, and a plasmid expressing a Gα16 chimera containing the last 44 amino acids of rat gustducin (Gα16gust44). Cells were incubated for 22 hours at 37 °C then washed twice with a calcium indicator dye in HBSS containing 20 mM HEPES (Calcium 4 Assay kit, Molecular Devices), incubated with HBSS for 1.5 hr, then moved to a Flexstation II-384 (Molecular Devices) set at 32 °C. […] Concentrations for mutation library screening were chosen to be approximately 2 to 3 times higher than the EC50 values for the ligands to maximize the sensitivity of detecting decreases in signaling due to the mutation in each clone.
(§2) For Ca^2+ flux assays, the value of fluorescence at 30 seconds after ligand addition (the time of peak signal for wild-type TAS2R16) was used as the maximum value. […] Data sets were analyzed and represented as percentage over baseline signal. Mean and standard deviation values were calculated for each clone from replicate assay data.

Q60R TAS2R16 = target: T2, Q60R TAS2R16 (Homo sapiens, UniProt Q9NYV7, Q60R); experiment: Ca2+ flux assay, mutation library clone Q60R; conditions: 3 mM salicin, mean (range, max-min), n=3
T2 construct: V5; expressed in transfected cells; host or cells: HEK-293T
T2 sequence (Q9NYV7 whole entry Q60R): as the sequence (Q9NYV7 whole entry S97R) above, with Q60R, R97S counted along it
Description: as §1, §2

L59P TAS2R16 = target: T3, L59P TAS2R16 (Homo sapiens, UniProt Q9NYV7, L59P); experiment: Ca2+ flux assay, mutation library clone L59P; conditions: 3 mM salicin, mean (range, max-min), n=3
T3 construct: Each construct in the mutation library was tested for full-length TAS2R16 translation; V5; expressed in transfected cells; host or cells: HEK-293T
T3 sequence (Q9NYV7 whole entry L59P): as the sequence (Q9NYV7 whole entry S97R) above, with L59P, R97S counted along it
Description: as §1, §2

N96A TAS2R16 = target: T4, N96A TAS2R16 (Homo sapiens, UniProt Q9NYV7, N96A); experiment: Ca2+ flux assay, N96A TAS2R16 variant; conditions: Fig. 7 dose-response
T4 construct: FLAG (N); expressed in transfected cells; host or cells: HEK-293T
T4 sequence (Q9NYV7 whole entry N96A): as the sequence (Q9NYV7 whole entry S97R) above, with N96A, R97S counted along it
Description: as §1, §2
Ligand dose-response data was analyzed with Graphpad Prism 5 software. […]

S108T TAS2R16 = target: T5, S108T TAS2R16 (Homo sapiens, UniProt Q9NYV7, S108T); experiment: Ca2+ flux assay, mutation library clone S108T; conditions: library screening concentrations
T5 construct: FLAG (N); expressed in transfected cells; host or cells: HEK-293T
T5 sequence (Q9NYV7 1-291 S108T): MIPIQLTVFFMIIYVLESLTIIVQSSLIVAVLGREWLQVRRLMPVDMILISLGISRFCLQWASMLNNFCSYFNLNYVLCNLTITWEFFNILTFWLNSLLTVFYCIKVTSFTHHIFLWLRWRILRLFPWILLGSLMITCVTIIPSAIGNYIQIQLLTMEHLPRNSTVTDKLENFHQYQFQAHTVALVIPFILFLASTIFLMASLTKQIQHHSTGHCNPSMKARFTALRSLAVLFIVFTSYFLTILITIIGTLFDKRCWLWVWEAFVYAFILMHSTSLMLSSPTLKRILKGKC
Description: as §1
For Ca^2+ flux assays, the value of fluorescence at 30 seconds after ligand addition (the time of peak signal for wild-type TAS2R16) was used as the maximum value. […] Raw data obtained from surface expression and flux experiments were normalized to the values for wild-type TAS2R16 on each plate. Data sets were analyzed and represented as percentage over baseline signal. Mean and standard deviation values were calculated for each clone from replicate assay data.

Q24R TAS2R16 = target: T6, Q24R TAS2R16 (Homo sapiens, UniProt Q9NYV7, Q24R); experiment: Ca2+ flux assay, mutation library clone Q24R; conditions: 3 mM salicin, mean (range, max-min), n=3
T6 construct: FLAG (N); expressed in transfected cells; host or cells: HEK-293T
T6 sequence (Q9NYV7 whole entry Q24R): as the sequence (Q9NYV7 whole entry S97R) above, with Q24R, R97S counted along it
Description: as §1, §2

R56P TAS2R16 = target: T7, R56P TAS2R16 (Homo sapiens, UniProt Q9NYV7, R56P); experiment: Ca2+ flux assay, mutation library clone R56P; conditions: 3 mM salicin, mean (range, max-min), n=3
T7 construct: FLAG (N); expressed in transfected cells; host or cells: HEK-293T
T7 sequence (Q9NYV7 whole entry R56P): as the sequence (Q9NYV7 whole entry S97R) above, with R56P, R97S counted along it
Description: as §1, §2

Structure (SMILES): OCc1ccccc1O[C@@H]1O[C@H](CO)[C@@H](O)[C@H](O)[C@H]1O [salicin]
- Ca2+ flux in response to salicin (S97R TAS2R16): 0 (5) % of wild-type
- Ca2+ flux in response to salicin (Q60R TAS2R16): 4 (7) % of wild-type
- Ca2+ flux in response to salicin (L59P TAS2R16): 2 (3) % of wild-type
- EC50 (N96A TAS2R16): 6.5 mM
- Ca2+ flux signaling value (S108T TAS2R16): 99 % of wild-type
- Ca2+ flux in response to salicin (Q24R TAS2R16): 9 (9) % of wild-type
- Ca2+ flux in response to salicin (R56P TAS2R16): 2 (1) % of wild-type
